Test results from PubChem BioAssay AID1918991 (Molecular Pharmacology Branch, DTP, NCI, 2023).
Several values for one entry are separate records, joined by “and”; a condition that tells them apart may be missing. Equal entries are not always repeated.

Tested on: 186277-243-T-J2-PDC complex spheroid growth
Experiment: Anticancer human tumor 186277-243-T-J2-PDC patient-derived colon adenocarcinoma cell line growth inhibition [AhR]
Conditions: for viability, T/C: stronger effect = lower value
Outline: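 Spheroids combined tumor cells with HUVEC endothelial cells and human MSCs as stroma. AhR antagonists were paired with standard or investigational drugs, each dosed in half-log steps down from near clinical Cmax, or from 10 microM where Cmax was unknown.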

[1] = curve of first compound, second compound 0.1 µM
[2] = curve of first compound, second compound 0.316 µM
[3] = curve of first compound, second compound 1 µM
[4] = curve of first compound, second compound 3.16 µM
[5] = curve of first compound, second compound 10 µM
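Further: spheroids exposed to compounds for seven days before the viability read.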
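Wherever viability, T/C is given: luminescent signal used as a stand-in for viable cell amount; 100% = DMSO vehicle control wells.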

CC[C@@]1(O)C(=O)OCc2c1cc1n(c2=O)Cc2cc3c(CN(C)C)c(O)ccc3nc2-1 + Cc1cncc(-c2nc(NCCc3c[nH]c4ccccc34)c3ncn(C(C)C)c3n2)c1 was tested, and the IC50 [1] was over 100 nM, the IC50 [2] was over 100 nM and the IC50 [3] was over 100 nM. For the same molecule, the IC50 [4] was over 100 nM, the IC50 [5] was 1.33 nM and the viability, T/C (second compound 0.1 µM, first compound 0.000316 µM) was 98.8%. The viability, T/C (second compound 0.1 µM, first compound 0.001 µM) was 96.3%, the viability, T/C (second compound 0.1 µM, first compound 0.00316 µM) was 118% and the viability, T/C (second compound 0.1 µM, first compound 0.01 µM) was 112%. For the same molecule, the viability, T/C (second compound 0.1 µM, first compound 0.0316 µM) was 92.6%, the viability, T/C (second compound 0.1 µM, first compound 0.1 µM) was 62% and the viability, T/C (second compound 0.316 µM, first compound 0.000316 µM) was 107%. For the same molecule, the viability, T/C (second compound 0.316 µM, first compound 0.001 µM) was 101%, the viability, T/C (second compound 0.316 µM, first compound 0.00316 µM) was 104% and the viability, T/C (second compound 0.316 µM, first compound 0.01 µM) was 135%. The viability, T/C (second compound 0.316 µM, first compound 0.0316 µM) was 86.2%, the viability, T/C (second compound 0.316 µM, first compound 0.1 µM) was 64.8% and the viability, T/C (second compound 1 µM, first compound 0.000316 µM) was 99.6%. For the same molecule, the viability, T/C (second compound 1 µM, first compound 0.001 µM) was 108%, the viability, T/C (second compound 1 µM, first compound 0.00316 µM) was 125% and the viability, T/C (second compound 1 µM, first compound 0.01 µM) was 140%. It also gave a viability, T/C (second compound 1 µM, first compound 0.0316 µM) of 85.2%, a viability, T/C (second compound 1 µM, first compound 0.1 µM) of 69.4% and a viability, T/C (second compound 3.16 µM, first compound 0.000316 µM) of 118%. The viability, T/C (second compound 3.16 µM, first compound 0.001 µM) was 109%, the viability, T/C (second compound 3.16 µM, first compound 0.00316 µM) was 145% and the viability, T/C (second compound 3.16 µM, first compound 0.01 µM) was 135%. It also gave a viability, T/C (second compound 3.16 µM, first compound 0.0316 µM) of 87.4%, a viability, T/C (second compound 3.16 µM, first compound 0.1 µM) of 68.9% and a viability, T/C (second compound 10 µM, first compound 0.000316 µM) of 49.5%. The viability, T/C (second compound 10 µM, first compound 0.001 µM) was 57.9%, the viability, T/C (second compound 10 µM, first compound 0.00316 µM) was 38.7% and the viability, T/C (second compound 10 µM, first compound 0.01 µM) was 28.6%. For the same molecule, the viability, T/C (second compound 10 µM, first compound 0.0316 µM) was 31% and the viability, T/C (second compound 10 µM, first compound 0.1 µM) was 39%.

In the case of Cn1ncnc1C1c2n[nH]c(=O)c3cc(F)cc(c23)NC1c1ccc(F)cc1 (configuration not stated), the viability, T/C (compound 0.000316 µM) is reported as 102% and 97.2% and 113%, the viability, T/C (compound 0.001 µM) is reported as 97.8% and 111% and 108% and the viability, T/C (compound 0.00316 µM) is reported as 91.4% and 107% and 93.2%. The viability, T/C (compound 0.01 µM) was 103% and 107% and 102%, the viability, T/C (compound 0.0316 µM) was 99.6% and 119% and 78.8% and the viability, T/C (compound 0.1 µM) was 110% and 114% and 69%. For the same molecule, the IC50 (curve of compound) was over 100 nM.

With O=C(C=Cn1cnc(-c2cc(C(F)(F)F)cc(C(F)(F)F)c2)n1)NNc1cnccn1 + CC(CO)NC(=O)c1cc(-c2ccc(Cl)cc2)nn(-c2cnn(C)c2)c1=O the IC50 [1] was 86.6 nM, the IC50 [2] was 89.2 nM and the IC50 [3] was 73.2 nM. The IC50 [4] was 72.9 nM, the IC50 [5] was 43.9 nM and the viability, T/C (second compound 0.1 µM, first compound 0.00949 µM) was 80.4%. The viability, T/C (second compound 0.1 µM, first compound 0.03 µM) was 78.3%, the viability, T/C (second compound 0.1 µM, first compound 0.0949 µM) was 46.8% and the viability, T/C (second compound 0.1 µM, first compound 0.3 µM) was 13.1%. It also gave a viability, T/C (second compound 0.1 µM, first compound 0.949 µM) of 3.75%, a viability, T/C (second compound 0.1 µM, first compound 3 µM) of 1.33% and a viability, T/C (second compound 0.316 µM, first compound 0.00949 µM) of 78%. The viability, T/C (second compound 0.316 µM, first compound 0.03 µM) was 83.5%, the viability, T/C (second compound 0.316 µM, first compound 0.0949 µM) was 46.7% and the viability, T/C (second compound 0.316 µM, first compound 0.3 µM) was 12.6%. The viability, T/C (second compound 0.316 µM, first compound 0.949 µM) was 4.18%, the viability, T/C (second compound 0.316 µM, first compound 3 µM) was 1.56% and the viability, T/C (second compound 1 µM, first compound 0.00949 µM) was 83.3%. It also gave a viability, T/C (second compound 1 µM, first compound 0.03 µM) of 67.6%, a viability, T/C (second compound 1 µM, first compound 0.0949 µM) of 46.9% and a viability, T/C (second compound 1 µM, first compound 0.3 µM) of 13.4%. It also gave a viability, T/C (second compound 1 µM, first compound 0.949 µM) of 4.21%, a viability, T/C (second compound 1 µM, first compound 3 µM) of 1.3% and a viability, T/C (second compound 3.16 µM, first compound 0.00949 µM) of 67.8%. For the same molecule, the viability, T/C (second compound 3.16 µM, first compound 0.03 µM) was 63.8%, the viability, T/C (second compound 3.16 µM, first compound 0.0949 µM) was 46% and the viability, T/C (second compound 3.16 µM, first compound 0.3 µM) was 12.6%. The viability, T/C (second compound 3.16 µM, first compound 0.949 µM) was 4.26%, the viability, T/C (second compound 3.16 µM, first compound 3 µM) was 2.11% and the viability, T/C (second compound 10 µM, first compound 0.00949 µM) was 62%. For the same molecule, the viability, T/C (second compound 10 µM, first compound 0.03 µM) was 55%, the viability, T/C (second compound 10 µM, first compound 0.0949 µM) was 38% and the viability, T/C (second compound 10 µM, first compound 0.3 µM) was 11.7%. The viability, T/C (second compound 10 µM, first compound 0.949 µM) was 3.48% and the viability, T/C (second compound 10 µM, first compound 3 µM) was 2.03%.
